Reference: PubChem BioAssay (NCI)
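Values below derive from 48-hour exposures of cells grown in 96-well plates, with endpoints linearly interpolated between the two concentrations bracketing the appropriate inhibition level. TGI: total growth inhibition.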

What was measured:
Experiment in all cases: inhibition of tumour cell growth, NCI panel, 48 h
[1] = tested on: HOP-92 NSCLC
[2] = tested on: SW-620 colon
[3] = tested on: M14 melanoma
[4] = tested on: RPMI-8226 leukemia
[5] = tested on: HCT-116 colon
[6] = tested on: NCI-H23 lung
[7] = tested on: HS 578T breast
[8] = tested on: SK-OV-3 ovarian
[9] = tested on: A498 renal
[10] = tested on: OVCAR-8 ovarian
[11] = tested on: SR leukemia
[12] = tested on: SF-295 CNS
[13] = tested on: EKVX NSCLC
[14] = tested on: MALME-3M melanoma
[15] = tested on: SN12C renal
[16] = tested on: UACC-257 melanoma
[17] = tested on: HL-60(TB) leukemia
[18] = tested on: NCI/ADR-RES ovarian
[19] = tested on: UACC-62 melanoma
[20] = tested on: OVCAR-3 ovarian
[21] = tested on: NCI-H460 lung
[22] = tested on: 786-0 renal
[23] = tested on: SNB-75 CNS
[24] = tested on: NCI-H522 lung
[25] = tested on: PC-3 prostate
[26] = tested on: MCF7 breast
[27] = tested on: T-47D breast
[28] = tested on: A549 NSCLC
[29] = tested on: SK-MEL-5 melanoma
[30] = tested on: MOLT-4 leukemia
[31] = tested on: HCT-15 colon
[32] = tested on: U251 CNS
[33] = tested on: OVCAR-4 ovarian
[34] = tested on: RXF 393 renal
[35] = tested on: TK-10 renal
[36] = tested on: SNB-19 CNS
[37] = tested on: HT29 colon
[38] = tested on: SF-539 CNS
[39] = tested on: COLO 205 colon
[40] = tested on: DU-145 prostate
[41] = tested on: HCC-2998 colon
[42] = tested on: ACHN renal
[43] = tested on: BT-549 breast
[44] = tested on: SK-MEL-2 melanoma
[45] = tested on: UO-31 renal
[46] = tested on: MDA-N
[47] = tested on: MDA-MB-435
[48] = tested on: KM12 colon
[49] = tested on: CAKI-1 renal
[50] = tested on: HOP-62 NSCLC
[51] = tested on: K-562 leukemia
[52] = tested on: MDA-MB-231 breast
[53] = tested on: CCRF-CEM leukemia
[54] = tested on: OVCAR-5 ovarian
[55] = tested on: NCI-H226 lung
[56] = tested on: IGROV1 ovarian
[57] = tested on: LOX IMVI melanoma
[58] = tested on: SK-MEL-28 melanoma
[59] = tested on: SF-268 CNS

O=C(/N=C/c1c(O)c2ccccc2oc1=O)Oc1ccccc1
TGI [1]: 79.9 µM | TGI [2]: > 100 µM | TGI [3]: > 100 µM | TGI [4]: > 100 µM | TGI [5]: 71.8 µM | TGI [6]: 68.5 µM | TGI [7]: 32.1 µM | TGI [8]: 66 µM | TGI [9]: 46.2 µM | TGI [10]: 91.9 µM | TGI [11]: > 100 µM | TGI [12]: > 100 µM | TGI [13]: > 100 µM | TGI [14]: 61.7 µM | TGI [15]: 51.7 µM | TGI [16]: 92.2 µM | TGI [17]: > 100 µM | TGI [18]: 95.8 µM | TGI [19]: 79.7 µM | TGI [20]: 44.2 µM | TGI [21]: > 100 µM | TGI [22]: 85.7 µM | TGI [23]: 68.4 µM | TGI [24]: > 100 µM | TGI [25]: > 100 µM | TGI [26]: > 100 µM | TGI [27]: 91.9 µM | TGI [28]: > 100 µM | TGI [29]: > 100 µM | TGI [30]: 96.4 µM | TGI [31]: > 100 µM | TGI [32]: 87.5 µM | TGI [33]: 65.8 µM | TGI [34]: 31.1 µM | TGI [35]: 79.6 µM | TGI [36]: > 100 µM | TGI [37]: > 100 µM | TGI [38]: 42.2 µM | TGI [39]: > 100 µM | TGI [40]: > 100 µM | TGI [41]: > 100 µM | TGI [42]: > 100 µM | TGI [43]: 81 µM | TGI [44]: 36.1 µM | TGI [45]: 63.6 µM | TGI [46]: 86.7 µM | TGI [47]: 66.5 µM | TGI [48]: > 100 µM | TGI [49]: 94.6 µM | TGI [50]: 43.6 µM | TGI [51]: > 100 µM | TGI [52]: 84.1 µM | TGI [53]: > 100 µM | TGI [54]: > 100 µM | TGI [55]: 44.9 µM | TGI [56]: 60.7 µM | TGI [57]: 80.9 µM

c1ccc2c(c1)c1c(c3ccccc32)CN2CCCC2C1 (stereo not given)
TGI [1]: 13.4 µM | TGI [2]: 16.7 µM | TGI [3]: 15.8 µM | TGI [4]: > 24.2 µM | TGI [5]: 14.7 µM | TGI [6]: 10.3 µM | TGI [7]: 13.8 µM | TGI [58]: 12.9 µM | TGI [8]: > 100 µM | TGI [9]: 12.1 µM | TGI [10]: 14.5 µM | TGI [11]: > 100 µM | TGI [12]: > 35.5 µM | TGI [13]: > 100 µM | TGI [14]: 7.14 µM | TGI [15]: 14.9 µM | TGI [16]: 20.3 µM | TGI [17]: 4.21 µM | TGI [18]: > 41.5 µM | TGI [19]: 12.8 µM | TGI [20]: 22.9 µM | TGI [21]: > 100 µM | TGI [22]: 23.1 µM | TGI [23]: 35.3 µM | TGI [24]: 9.9 µM | TGI [25]: 13.4 µM | TGI [26]: 11.4 µM | TGI [27]: > 100 µM | TGI [28]: 17.9 µM | TGI [29]: 11.2 µM | TGI [30]: > 100 µM | TGI [31]: > 70.4 µM | TGI [32]: 23.1 µM | TGI [33]: > 100 µM | TGI [34]: 9.02 µM | TGI [35]: > 90.8 µM | TGI [36]: > 22.5 µM | TGI [37]: > 34.8 µM | TGI [38]: 10.7 µM | TGI [39]: 13.8 µM | TGI [40]: > 100 µM | TGI [41]: 17.1 µM | TGI [42]: 9.35 µM | TGI [43]: 53.9 µM | TGI [44]: 9.1 µM | TGI [45]: 11.8 µM | TGI [46]: 14.2 µM | TGI [59]: 13.2 µM | TGI [47]: 31.6 µM | TGI [48]: 15.7 µM | TGI [49]: > 100 µM | TGI [50]: > 31.9 µM | TGI [51]: > 100 µM | TGI [52]: 32.3 µM | TGI [53]: 15.5 µM | TGI [54]: > 43.4 µM | TGI [56]: 12 µM | TGI [57]: 9.46 µM
